Experimental data taken from the supplement of paper PMC10307832.

Experiments:
Experiment in all cases: relative viability (nuclei count vs DMSO), 5 days (fraction); higher = more cells survive
[1] = compound: C1COCCN1C2=NC(=NC3=C2OC4=C3C=CC=N4)C5=CC(=CC=C5)NC(=O)C6=CN=C(C=C6)N + N=C(N)NC(=N)NCCc1ccccc1 [Phenformin] (partner 250 µM)
How it was run: (§1)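 Five library-drug doses in √10 steps were combined with a fixed anchor-drug dose, or a single drug was given alone, by pin tool to lung cancer cell lines in 1536-well plates the day after seeding. Nuclei were stained and counted after 5 days. Relative viability is the nuclei count in treated wells over that in vehicle wells, taken as the median of duplicate plates.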

SGI-1776 + Crizotinib = compound: CN1CCC(CNc2ccc3ncc(-c4cccc(OC(F)(F)F)c4)n3n2)CC1 [SGI-1776] + C[C@@H](Oc1cc(-c2cnn(C3CCNCC3)c2)cnc1N)c1c(Cl)ccc(F)c1Cl [Crizotinib] (partner 1 µM)
How it was run: as §1

SGI-1776 + Phenformin = compound: CN1CCC(CNc2ccc3ncc(-c4cccc(OC(F)(F)F)c4)n3n2)CC1 [SGI-1776] + N=C(N)NC(=N)NCCc1ccccc1 [Phenformin] (partner 250 µM)
How it was run: as §1

Entinostat + Tozasertib = compound: Nc1ccccc1NC(=O)c1ccc(CNC(=O)OCc2cccnc2)cc1 [Entinostat] + Cc1cc(Nc2cc(N3CCN(C)CC3)nc(Sc3ccc(NC(=O)C4CC4)cc3)n2)n[nH]1 [Tozasertib] (partner 0.1 µM)
How it was run: as §1

Cell Line | relative viability ([1]; first compound 0.02 µM) | relative viability ([1]; first compound 0.06325 µM) | relative viability ([1]; first compound 0.2 µM) | relative viability ([1]; first compound 0.6325 µM) | relative viability ([1]; first compound 2 µM) | relative viability (SGI-1776 + Crizotinib; first compound 0.08 µM) | relative viability (SGI-1776 + Crizotinib; first compound 0.8 µM) | relative viability (SGI-1776 + Crizotinib; first compound 2.53 µM) | relative viability (SGI-1776 + Crizotinib; first compound 8 µM) | relative viability (SGI-1776 + Phenformin; first compound 0.08 µM) | relative viability (SGI-1776 + Phenformin; first compound 0.8 µM) | relative viability (SGI-1776 + Phenformin; first compound 2.53 µM) | relative viability (SGI-1776 + Phenformin; first compound 8 µM) | relative viability (Entinostat + Tozasertib; first compound 0.02 µM) | relative viability (Entinostat + Tozasertib; first compound 0.06325 µM) | relative viability (Entinostat + Tozasertib; first compound 0.2 µM) | relative viability (Entinostat + Tozasertib; first compound 0.6325 µM) | relative viability (Entinostat + Tozasertib; first compound 2 µM)
LC-2-ad | 0.551 | 0.598 | 0.456 | 0.493 | 0.49 | 0.53 | 0.47 | 0.414 | 0.36 | 0.572 | 0.554 | 0.667 | 0.362 | 0.425 | 0.367 | 0.368 | 0.299 | 0.242
NCI-H3122 | 0.619 | 0.359 | 0.347 | 0.372 | 0.343 | 0.284 | 0.3 | 0.295 | 0.335 | 0.371 | 0.328 | 0.309 | 0.278 | 0.334 | 0.36 | 0.479 | 0.275 | 0.102
LCLC-97TM1 | 0.446 | 0.475 | 0.409 | 0.452 | 0.419 | 0.383 | 0.384 | 0.342 | 0.198 | 0.487 | 0.434 | 0.465 | 0.456 | 0.218 | 0.213 | 0.192 | 0.177 | 0.167
NCI-H520 | 0.597 | 0.631 | 0.588 | 0.479 | 0.403 | 0.773 | 0.828 | 0.728 | 0.473 | 0.687 | 0.597 | 0.53 | 0.316 | 0.47 | 0.441 | 0.38 | 0.331 | 0.325
NCI-H358 |  | 0.36 | 0.269 | 0.248 | 0.169 | 0.53 | 0.393 | 0.244 | 0.292 | 0.325 | 0.34 | 0.313 | 0.214 | 0.0897 | 0.0965 | 0.0816 | 0.0915 | 0.0853
NCI-H1755 | 0.606 | 0.652 | 0.644 | 0.336 | 0.469 | 0.863 | 0.898 | 0.89 | 0.808 | 0.617 | 0.584 | 0.576 | 0.516 | 0.603 | 0.505 | 0.464 | 0.361 | 0.357
EPLC-272H | 0.306 | 0.305 | 0.26 | 0.241 | 0.282 | 0.832 | 0.891 | 0.909 | 0.772 | 0.261 | 0.326 | 0.352 | 0.246 | 0.265 | 0.291 | 0.277 | 0.154 | 0.197
NCI-H2228 | 0.322 | 0.392 | 0.273 | 0.233 | 0.222 | 0.523 | 0.417 | 0.396 | 0.15 | 0.345 | 0.327 | 0.286 | 0.164 | 0.258 | 0.142 | 0.207 | 0.0934 | 0.11
